ChEMBL document CHEMBL4422651, “Revisiting tubercidin against kinetoplastid parasites: Aromatic substitutions at position 7 improve activity and reduce toxicity” (Eur J Med Chem, 2019)
Calls of active or inactive are those of the source. The rule behind the calls is not given here.

What was measured:
[1] = system: MRC5; experiment: Cytotoxicity against human MRC5 cells assessed as reduction in cell viability after 3 days by resazurin dye-based assay; conditions: MRC5, 72 h
[2] = system: Trypanosoma brucei rhodesiense; experiment: Antitrypanosomal activity against Trypanosoma brucei rhodesiense STIB-900 after 48 hrs by alamar blue assay; format: functional, organism-based; conditions: STIB-900, 48 h
[3] = system: Trypanosoma cruzi; experiment: Antitrypanosomal activity against nifurtimox-sensitive Trypanosoma cruzi Tulahuen CL2 harboring beta-galactosidase infected in human MRC5 cells after 7 days by resazurin dye-based assay; format: functional, organism-based
[4] = Selectivity index, ratio of EC50 for human MRC5 cells to EC50 for Trypanosoma brucei rhodesiense STIB-900; format: toxicity; conditions: read-out: Ratio EC50
[5] = system: Trypanosoma brucei brucei; experiment: Antitrypanosomal activity against Trypanosoma brucei brucei Squib 427 after 48 hrs by alamar blue assay; format: functional, organism-based; conditions: Squib 427, 48 h
[6] = Selectivity index, ratio of EC50 for human MRC5 cells to EC50 for Trypanosoma brucei brucei Squib 427; format: toxicity; conditions: read-out: Ratio EC50
[7] = Selectivity index, ratio of EC50 for human MRC5 cells to EC50 for nifurtimox-sensitive Trypanosoma cruzi Tulahuen CL2 harboring beta-galactosidase; format: toxicity; conditions: read-out: Ratio EC50
[8] = system: Trypanosoma cruzi; experiment: Potency index, ratio of EC50 for benznidazole to EC50 for test compound for antitrypanosomal activity against nifurtimox-sensitive Trypanosoma cruzi Tulahuen CL2 harboring beta-galactosidase infected in human MRC5 cells after 7 days by resazurin dye-based assay; format: functional
[9] = Inhibition of [3H]-adenosine transport at Trypanosoma brucei Adenosine transporter P1 expressed in pentamidine/diminazene/melaminophenyl arsenical resistant Trypanosoma brucei B48 bloodstream forms after 60 secs by scintillation counting analysis
[10] = Inhibition of [3H]-adenosine transport at Trypanosoma brucei Adenosine transporter P2 expressed in pentamidine/diminazene/melaminophenyl arsenical resistant Trypanosoma brucei B48 bloodstream forms after 60 secs by scintillation counting analysis
[11] = system: Trypanosoma brucei; experiment: Antitrypanosomal activity against pentamidine/diminazene/melaminophenyl arsenical resistant Trypanosoma brucei B48 after 48 hrs by alamar blue assay; format: functional, organism-based; conditions: B48, 48 h
[12] = system: Trypanosoma brucei; experiment: Antitrypanosomal activity against isometamidium resistant Trypanosoma brucei ISMR1 after 48 hrs by alamar blue assay; format: functional, organism-based; conditions: ISMR1, 48 h
[13] = system: Trypanosoma congolense; experiment: Antitrypanosomal activity against Trypanosoma congolense by resazurin assay; format: functional, organism-based
[14] = system: Trypanosoma brucei; experiment: Antitrypanosomal activity against wild type Trypanosoma brucei Lister 427 after 48 hrs by alamar blue assay; format: functional, organism-based; conditions: Lister 427, 48 h
[15] = system: Trypanosoma brucei; experiment: Antitrypanosomal activity against Trypanosoma brucei TbAT1-KO after 48 hrs by alamar blue assay; format: functional, organism-based

| SMILES | EC50 [1] | EC50 [2] | Activity [3] | selectivity ratio [4] | EC50 [5] | selectivity ratio [6] | other results |
| --- | --- | --- | --- | --- | --- | --- | --- |
| Nc1ncnc2c1c(-c1cc(Cl)cc(Cl)c1)cn2[C@@H]1O[C@H](CO)[C@@H](O)[C@H]1O | > 64 µM | 3.66 µM | inactive | > 17 | 8.17 µM | > 7.8 | – |
| Nc1ncnc2c1c(-c1ccc(Cl)cc1)cn2[C@@H]1O[C@H](CO)[C@@H](O)[C@H]1O | 27 µM | – | – | – | 7.58 µM | 3.6 | selectivity ratio [7]: 57.4; Ratio EC50 [8]: <=10 |
| Nc1ncnc2c1c(-c1cccc(Cl)n1)cn2[C@@H]1O[C@H](CO)[C@@H](O)[C@H]1O | > 64 µM | 0.62 µM | inactive | > 103 | 1.75 µM | > 37 | – |
| Nc1ncnc2c1c(-c1cccnc1)cn2[C@@H]1O[C@H](CO)[C@@H](O)[C@H]1O | > 64 µM | – | inactive | – | > 64 µM | – | Ki [9]: 21.7 µM; Ki [10]: 49.3 µM |
| Nc1ncnc2c1c(-c1ccc3ccccc3n1)cn2[C@@H]1O[C@H](CO)[C@@H](O)[C@H]1O | > 64 µM | 3.72 µM | inactive | > 17 | 6.45 µM | > 9.9 | – |
| Nc1ncnc2c1c(-c1cc3ccccc3cn1)cn2[C@@H]1O[C@H](CO)[C@@H](O)[C@H]1O | > 64 µM | 6.16 µM | inactive | > 10 | 14.7 µM | > 4.4 | – |
| Nc1ncnc2c1c(-c1cccc(Cl)c1)cn2[C@@H]1O[C@H](CO)[C@@H](O)[C@H]1O | 32.8 µM | 6.88 µM | inactive | 4.8 | 9.9 µM | 3.3 | – |
| Cn1cncc1-c1cn([C@@H]2O[C@H](CO)[C@@H](O)[C@H]2O)c2ncnc(N)c12 | > 64 µM | – | inactive | – | 33.3 µM | > 1.9 | – |
| Nc1ncnc2c1c(-c1ccc3ccccc3c1)cn2[C@@H]1O[C@H](CO)[C@@H](O)[C@H]1O | 7.53 µM | 6.79 µM | inactive | 1.2 | 7.83 µM | 0.96 | – |
| N=C(N)c1ccc(/N=N/Nc2ccc(C(=N)N)cc2)cc1 [DIMINAZENE] | – | – | – | – | – | – | EC50 [11]: 7.2 µM; EC50 [12]: 2.9 µM; EC50 [13]: 0.22 µM; EC50 [14]: 0.42 µM; EC50 [15]: 4.5 µM |
| Nc1ncnc2c1c(-c1cncnc1)cn2[C@@H]1O[C@H](CO)[C@@H](O)[C@H]1O | > 64 µM | – | inactive | – | 52.4 µM | > 1.2 | – |
| Nc1ncnc2c1c(-c1cc(Cl)ccn1)cn2[C@@H]1O[C@H](CO)[C@@H](O)[C@H]1O | 27.3 µM | 6.88 µM | inactive | 4 | 8.92 µM | 3.1 | – |
| COc1ccnc(-c2cn([C@@H]3O[C@H](CO)[C@@H](O)[C@H]3O)c3ncnc(N)c23)c1 | 7.59 µM | 8.15 µM | inactive | 0.9 | 25.5 µM | 0.3 | – |
| Nc1ncnc2c1c(-c1nccc3ccccc13)cn2[C@@H]1O[C@H](CO)[C@@H](O)[C@H]1O | > 64 µM | 55.6 µM | inactive | > 1.2 | > 64 µM | – | – |
| Nc1ncnc2c1c(-c1ccccc1)cn2[C@@H]1O[C@H](CO)[C@@H](O)[C@H]1O | 56.2 µM | 4.1 µM | inactive | 14 | 32.3 µM | 1.7 | – |
| COc1ccc(-c2cn([C@@H]3O[C@H](CO)[C@@H](O)[C@H]3O)c3ncnc(N)c23)cc1 | 28 µM | – | inactive | – | 41.6 µM | 0.67 | – |
| Nc1ncnc2c1c(-c1ncccn1)cn2[C@@H]1O[C@H](CO)[C@@H](O)[C@H]1O | 14.3 µM | – | inactive | – | 2.26 µM | 6.3 | – |
| Cn1cnc(-c2cn([C@@H]3O[C@H](CO)[C@@H](O)[C@H]3O)c3ncnc(N)c23)c1 | 23.4 µM | – | inactive | – | 4.76 µM | 4.9 | – |
| Nc1ncnc2c1c(-c1ccc(Cl)cn1)cn2[C@@H]1O[C@H](CO)[C@@H](O)[C@H]1O | > 64 µM | 4.6 µM | inactive | > 13 | 8.97 µM | > 7.1 | – |
| Nc1ncnc2c1c(-c1ccncc1)cn2[C@@H]1O[C@H](CO)[C@@H](O)[C@H]1O | 55.8 µM | – | inactive | – | > 64 µM | – | Ki [9]: 12.5 µM; Ki [10]: 9.34 µM |
| Cc1ccc(-c2cn([C@@H]3O[C@H](CO)[C@@H](O)[C@H]3O)c3ncnc(N)c23)cc1 | 26.2 µM | – | inactive | – | 29.1 µM | 0.9 | – |
| Nc1ncnc2c1c(-c1cnccn1)cn2[C@@H]1O[C@H](CO)[C@@H](O)[C@H]1O | 0.55 µM | – | inactive | – | 1.95 µM | 0.28 | – |
| Nc1ncnc2c1c(-c1ccccc1F)cn2[C@@H]1O[C@H](CO)[C@@H](O)[C@H]1O | 61 µM | 26.3 µM | inactive | 2.3 | 33.3 µM | 1.8 | – |
| N=C(N)c1ccc(OCCCCCOc2ccc(C(=N)N)cc2)cc1 [PENTAMIDINE] | – | – | – | – | – | – | EC50 [11]: 0.99 µM; EC50 [12]: 0.14 µM; EC50 [13]: 1.9 µM; EC50 [14]: 0.011 µM; EC50 [15]: 0.018 µM |
| O=C(Cn1ccnc1[N+](=O)[O-])NCc1ccccc1 [BENZNIDAZOLE] | > 64 µM | – | – | – | – | – | selectivity ratio [7]: > 23 |
| Cc1ccc(C(=O)Nc2ccc(S(=O)(=O)O)c3cc(S(=O)(=O)O)cc(S(=O)(=O)O)c23)cc1NC(=O)c1cccc(NC(=O)Nc2cccc(C(=O)Nc3cc(C(=O)Nc4ccc(S(=O)(=O)O)c5cc(S(=O)(=O)O)cc(S(=O)(=O)O)c45)ccc3C)c2)c1 [SURAMIN] | > 64 µM | 0.04 µM | – | > 1600 | 0.05 µM | > 1280 | – |
| Cc1ccnc(-c2cn([C@@H]3O[C@H](CO)[C@@H](O)[C@H]3O)c3ncnc(N)c23)c1 | > 64 µM | 25.1 µM | inactive | > 2.5 | 38.2 µM | > 1.7 | – |
| CC[n+]1c(-c2ccccc2)c2cc(N/N=N/c3cccc(C(=N)N)c3)ccc2c2ccc(N)cc21 [ISOMETAMIDIUM] | – | – | – | – | – | – | EC50 [11]: 0.56 µM; EC50 [12]: 3.1 µM; EC50 [14]: 0.65 µM; EC50 [15]: 0.75 µM |
| Nc1ncnc2c1c(-c1ccc(F)cn1)cn2[C@@H]1O[C@H](CO)[C@@H](O)[C@H]1O | > 64 µM | 1.69 µM | inactive | > 38 | 4.77 µM | > 13 | – |
